Measurements taken from patent publication US20260159474A1, “Aminoindane Compounds and Compositions and Methods of Their Therapeutic Use” (Solvonis Therapeutics Ireland Holdings Limited, priority 2021, published 2026).

Biological target: T1, human P-glycoprotein transporter (MDCKII-MDR1 cells) (Homo sapiens, UniProt P08183)
T1 construct: expressed in transfected cells; host or cells: MDCKII-MDR1 (Madin-Darby Canine Kidney clone II)
Assay: Bidirectional permeability and P-gp substrate assay in MDCKII-MDR1 cells
Assay type: in vitro ADME
Details: for Permeability classification: by Papp; for P-gp Substrate?: efflux ratio >2 and reduced with GF120918 or in mock MDCKII cells; for Papp A→B at 60 min: dog, MDCK, read-out: MDCKII Permeability app A > B
Experimental: Methods: A bidirectional permeability study was conducted to evaluate the apparent permeability (Papp) of therapeutic compounds. Additionally, the MDCKII-MDR1 cell line (Madin-Darby Canine Kidney clone II cell line heterologously expressing the human P-glycoprotein transporter) and mock cell line MDCKII were used to determine whether a compound acted as a P-gp substrate, in the absence and in the presence of a potent P-gp inhibitor. Test control items (digoxin, metoprolol, and atenolol) and control P-gp inhibitor (GF120918) stock solution were prepared in DMSO. Bidirectional assays (Apical to Basolateral [AB] and Basolateral to Apical [BA]) were run, in both the absence and presence of P-gp inhibitor GF120918 in MDCKII-MDR1 and mock cell line MDCKII, using as transport buffer HBSSH at a pH of 7.4 (n=3).
Compounds were tested at a single concentration (i.e. at […]) at one time point (i.e. 60 min). Alternative concentrations or time points may also be investigated. As reference compounds, digoxin (P-gp substrate), atenolol (low permeability) and metoprolol (high permeability) were included at a single concentration (e.g., 10 or […]) and at single time point (e.g., 60 min). Digoxin transport was evaluated in two directions (apical-to-basolateral [AB] and basolateral-to-apical [BA]) in the absence and presence of GF120918 or in mock cells, MDCKII (n=3). Atenolol and metoprolol were only tested in the AB direction in absence of P-gp inhibitor GF120918 or in mock cells, MDCKII (n=3). The integrity of the cell monolayer was evaluated after the permeability experiment using the paracellular permeability marker Lucifer yellow (LY) in the apical to basolateral direction in each well.
MDCKII or MDCKII-MDR1 cells were cultivated in DMEM (high glucose, GlutaMAXTM supplemented with pyruvate, 10% FBS HI and Pen/Strep). Cells were seeded onto microporous PET (Polyethylene Terephthalate) membranes in HTS 96-Multiwell Insert plates at a density of ˜175,000-245,000 cells/cm^2 (25000-35000 cells/well; 50 μL/well) in DMEM medium and incubated for 3-4 days at 37° C.-5% CO2. Medium was changed the day before the experiment.
Stock solutions of test items were prepared in DMSO at a concentration of 5 or 10 mM and stored at −20° C. until use. The potent P-gp inhibitor, GF120918 (stock solution 10 mM) and the reference controls digoxin, atenolol, metoprolol (stock solutions 3 or 10 mM) were prepared in DMSO and stored at −20° C. until use.
Donor working solutions of test items and reference controls were prepared at a concentration of 10 or 25 µM, diluting the stock solutions in HBSSH. Receiver working solutions contained transport buffer only. All working solutions were prepared such that the final concentration of DMSO was 1% (v/v). A donor working solution containing LY was also prepared in transport buffer at 100 µM.
MDCKII and MDCKII-MDR1 cells were preincubated (37° C., 15 to 30 minutes) in receiver working solutions containing transport buffer on apical (A) and basolateral (B) sides. Following pre-incubation, test items and control items (digoxin) transport were measured in two directions (apical to basolateral [AB]) and basolateral to apical [BA]), and these directions were performed in triplicate sets of wells, in both the absence and presence of […] GF120918 or mock MDCKII cells. For [AB] directional transport, 75 μL of donor working solution was added to the A (apical) compartment and 235 μL of receiver working solution was added to the B (basolateral) compartment. For [BA] directional transport, 235 μL donor working solution with test items or reference controls was added to the B compartment and 75 μL receiver working solution was added to the A compartment. Transport of permeability reference controls, atenolol and metoprolol, were measured in one direction (apical to basolateral [AB]) (n=3).
The cells were incubated (at 37° C., with shaking) for 60 minutes. […]

[1] = apical to basolateral, pH 7.4, 60 min

T1 sequence (P08183 whole entry): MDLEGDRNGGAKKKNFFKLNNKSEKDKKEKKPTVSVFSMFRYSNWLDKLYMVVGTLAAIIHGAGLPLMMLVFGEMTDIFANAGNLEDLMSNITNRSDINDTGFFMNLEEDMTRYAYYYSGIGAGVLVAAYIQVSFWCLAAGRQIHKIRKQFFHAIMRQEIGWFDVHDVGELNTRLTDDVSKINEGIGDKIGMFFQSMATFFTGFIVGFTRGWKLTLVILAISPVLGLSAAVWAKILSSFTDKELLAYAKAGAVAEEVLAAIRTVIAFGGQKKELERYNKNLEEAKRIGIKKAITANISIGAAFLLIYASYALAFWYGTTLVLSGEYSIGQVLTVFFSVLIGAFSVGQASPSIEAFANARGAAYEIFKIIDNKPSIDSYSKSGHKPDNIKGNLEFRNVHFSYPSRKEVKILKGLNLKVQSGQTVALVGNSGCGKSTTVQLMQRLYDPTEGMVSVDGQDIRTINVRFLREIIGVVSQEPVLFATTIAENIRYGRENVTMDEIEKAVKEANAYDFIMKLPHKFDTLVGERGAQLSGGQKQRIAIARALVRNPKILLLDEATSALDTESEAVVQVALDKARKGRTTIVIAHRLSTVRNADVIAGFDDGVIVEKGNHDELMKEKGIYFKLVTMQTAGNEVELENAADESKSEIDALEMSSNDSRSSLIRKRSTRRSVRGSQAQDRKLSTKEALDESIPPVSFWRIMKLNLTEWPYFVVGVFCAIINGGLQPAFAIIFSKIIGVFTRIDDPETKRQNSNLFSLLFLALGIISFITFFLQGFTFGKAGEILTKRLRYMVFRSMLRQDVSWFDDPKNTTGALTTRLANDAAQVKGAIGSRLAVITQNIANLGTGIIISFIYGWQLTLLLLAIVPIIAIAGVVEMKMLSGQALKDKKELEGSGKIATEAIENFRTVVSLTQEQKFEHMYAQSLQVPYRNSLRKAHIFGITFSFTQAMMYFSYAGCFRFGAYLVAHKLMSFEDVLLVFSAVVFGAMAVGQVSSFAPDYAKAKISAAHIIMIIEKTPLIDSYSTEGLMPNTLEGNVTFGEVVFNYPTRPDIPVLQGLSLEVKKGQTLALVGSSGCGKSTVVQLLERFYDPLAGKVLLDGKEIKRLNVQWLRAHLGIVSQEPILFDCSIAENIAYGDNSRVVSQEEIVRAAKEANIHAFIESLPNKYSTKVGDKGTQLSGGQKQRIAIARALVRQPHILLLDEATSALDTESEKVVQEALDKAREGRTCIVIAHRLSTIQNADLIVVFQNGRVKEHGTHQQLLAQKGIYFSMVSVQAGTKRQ

CNC(C)Cc1ccc2c(c1)OCO2 (stereo not shown) [MDMA]
MDCKII Permeability app A > B [1]: 14 ×10⁻⁶ cm/s
Permeability classification: less permeable
P-gp Substrate?: No
MDCKII-MDR1 B-A ratio (efflux ratio, MDCKII-MDR1 cells): 1.5

COC(=O)c1ccc2c(c1)CC(N)C2 (stereo not shown) [CMP-405, 2-aminoindane-5-methylcarboxylate]
Permeability classification: highly permeable
Papp A→B at 60 min [1]: 16.2 ×10⁻⁶ cm/s
P-gp Substrate?: No

COc1ccc2c(c1)CC(N)C2 (stereo not shown) [MEAI, 5-methoxy-2-aminoindane]
Permeability classification: highly permeable
Papp A→B at 60 min [1]: 17.4 ×10⁻⁶ cm/s
P-gp Substrate?: No
